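96-well plates; 48 h exposure; 5 concentrations. Endpoints by linear interpolation between flanking doses. Not reached: highest tested concentration assigned. GI50: concentration for 50% inhibition of growth. TGI is the concentration that stops growth completely.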
Tests used:
Experiment in all cases: growth of human tumour cells (NCI), 48 h
A549 NSCLC = test system: A549 NSCLC
HCT-116 colon = test system: HCT-116 colon
HT29 colon = test system: HT29 colon
LOX IMVI melanoma = test system: LOX IMVI melanoma
MOLT-4 leukemia = test system: MOLT-4 leukemia
NCI/ADR-RES ovarian = test system: NCI/ADR-RES ovarian
OVCAR-8 ovarian = test system: OVCAR-8 ovarian
RXF 393 renal = test system: RXF 393 renal
UACC-62 melanoma = test system: UACC-62 melanoma
UO-31 renal = test system: UO-31 renal

| Compound | TGI (A549 NSCLC) [µM] | TGI (HCT-116 colon) [µM] | TGI (HT29 colon) [µM] | TGI (LOX IMVI melanoma) [µM] | TGI (MOLT-4 leukemia) [µM] | TGI (NCI/ADR-RES ovarian) [µM] | TGI (OVCAR-8 ovarian) [µM] | TGI (RXF 393 renal) [µM] | TGI (UACC-62 melanoma) [µM] | TGI (UO-31 renal) [µM] | GI50 (A549 NSCLC) [µM] | GI50 (HCT-116 colon) | GI50 (HT29 colon) | GI50 (LOX IMVI melanoma) | GI50 (MOLT-4 leukemia) [nM] | GI50 (NCI/ADR-RES ovarian) | GI50 (OVCAR-8 ovarian) | GI50 (RXF 393 renal) | GI50 (UACC-62 melanoma) [nM] | GI50 (UO-31 renal) |
| --- | --- | --- | --- | --- | --- | --- | --- | --- | --- | --- | --- | --- | --- | --- | --- | --- | --- | --- | --- | --- |
| O=C1OC(OC/C(Br)=C(/Br)COC2OC(=O)C(Cl)=C2Cl)C(Cl)=C1Cl (stereo not given) | 48.9 | 10 | 28.4 | 8.36 | 5.44 | 36.9 | > 58 | 13.4 | 29.1 | 15.6 | – | – | – | – | – | – | – | – | – | – |
| Cc1ccccc1NC(=O)c1cc2ccccc2cc1O | > 100 | 15.1 | > 100 | > 100 | > 100 | 8.79 | 59.3 | 7.23 | > 100 | > 100 | 3.48 | 3450 nM | 7540 nM | 3260 nM | 3980 | 2850 nM | 3460 nM | 2780 nM | 3480 | 3540 nM |
| CN(C)c1ncnc2c1ccn2C1OC(CO)C(O)C1O (stereo not given) | > 100 | > 100 | > 100 | 12.2 | 1.95 | > 30.1 | 6.81 | > 100 | > 100 | 13.7 | 13.6 | 2970 nM | 1470 nM | 559 nM | 278 | 1300 nM | 890 nM | 18100 nM | > 100000 | 1370 nM |
| CCc1nc(N)nc(N)c1C#CC(C)c1cc(-c2ccnc(C)c2)c2oc(C)nc2c1 (stereo not given) | 11.7 | 10.9 | 7.74 | 2.3 | 8.81 | 10.1 | 47.1 | 2.71 | 3.23 | 11.5 | < 0.01 | < 10 nM | < 10 nM | < 10 nM | < 10 | 14.6 nM | < 10 nM | 39.5 nM | < 10 | 18.1 nM |
| O=C1/C(=C\c2ccccc2)c2ccccc2N1/N=C\c1ccccc1 | > 100 | > 100 | > 100 | > 100 | > 100 | – | > 100 | – | > 100 | > 100 | – | – | – | – | – | – | – | – | – | – |
| O=S(=O)(N/N=C/c1ccc(Cl)cc1Cl)c1ccccc1 | > 100 | > 100 | > 100 | > 100 | > 100 | – | > 100 | > 100 | > 100 | > 100 | – | – | – | – | – | – | – | – | – | – |
| N#CC(C(=O)CCC(=O)Nc1ccc(Cl)c(Cl)c1)c1ccc(Cl)cc1 (stereo not given) | > 100 | > 100 | > 100 | > 100 | > 100 | – | > 100 | > 100 | > 100 | > 100 | – | – | – | – | – | – | – | – | – | – |
| COC1(Cc2ccccc2)C(=O)c2ccccc2N1C(C)=O (stereo not given) | > 100 | > 100 | > 100 | – | > 100 | – | > 100 | > 100 | > 100 | > 100 | – | – | – | – | – | – | – | – | – | – |
| COC(=O)C1=C(c2ccc(Cl)cc2)C(O)N=C(NN)N1 (stereo not given) | > 100 | > 100 | > 100 | > 100 | > 100 | – | > 100 | > 100 | > 100 | > 100 | – | – | – | – | – | – | – | – | – | – |
| CCSC(=O)C1(C)OC2CCCCC2C1=O (stereo not given) | > 100 | > 100 | – | – | > 100 | – | > 100 | > 100 | > 100 | > 100 | – | – | – | – | – | – | – | – | – | – |
| CCOC(=O)/C=C1\Oc2ccccc2C1(C)O (stereo not given) | > 100 | > 100 | > 100 | > 100 | > 100 | – | > 100 | > 100 | > 100 | > 100 | – | – | – | – | – | – | – | – | – | – |
| Cc1ccc(Nc2nc(C)c(C(/C=C/c3ccc4c(c3)OCO4)=N/Nc3ccc([N+](=O)[O-])cc3[N+](=O)[O-])s2)c([N+](=O)[O-])c1 | > 100 | > 100 | > 100 | > 100 | > 100 | – | > 100 | > 100 | 17.8 | > 100 | – | – | – | – | – | – | – | – | – | – |
| O=c1cc(-c2ccc(O)cc2)oc2cc(O)cc(O)c12 | > 100 | > 100 | – | 86.6 | 88.4 | – | – | – | > 100 | 56.4 | – | – | – | – | – | – | – | – | – | – |
| O=c1[nH]cnc2c1ncn2CCCCO | > 100 | > 100 | > 100 | > 100 | > 100 | – | > 100 | > 100 | > 100 | > 100 | – | – | – | – | – | – | – | – | – | – |
| CC1=C(C(=O)Nc2ccccc2C)C(c2ccccc2C)C(C(=O)Nc2ccccc2C)=C(C)N1 | > 100 | 50.4 | 43 | 30.3 | > 10 | – | 36.8 | 26.2 | – | 30.2 | – | – | – | – | – | – | – | – | – | – |
| COC1OC(C(C)O)C2OC(C)(C)OC12 (stereo not given) | > 100 | > 100 | > 100 | > 100 | > 100 | > 100 | > 100 | – | > 100 | > 100 | – | – | – | – | – | – | – | – | – | – |
| Cc1cn(Cc2ccccc2CCl)c(=O)n(Cc2ccccc2CCl)c1=O | 14.2 | 3.18 | 5.69 | 2.59 | – | 6.36 | 5.69 | 3.22 | 3.16 | 3.17 | 3.9 | 1550 nM | 2040 nM | 1160 nM | – | 2220 nM | 2390 nM | 1570 nM | 1670 | 1650 nM |
| COc1ccc(C=C2C(=O)NC(=O)NC2=O)cc1OCc1ccccc1 | – | – | – | – | – | – | – | – | – | – | – | 40.5 µg/mL | 31.7 µg/mL | 52.5 µg/mL | – | 39.4 µg/mL | 57.3 µg/mL | 12 µg/mL | – | 33 µg/mL |
| NS(=O)(=O)c1ccc(NC(=O)c2cccc3c(Nc4ccc(S(N)(=O)=O)cc4)c4ccccc4nc23)cc1 | > 100 | > 100 | 68.4 | > 100 | 39.8 | – | > 100 | > 100 | > 100 | > 100 | – | – | – | – | – | – | – | – | – | – |
| CC1CC(=O)c2c(ccc3c2C(=O)c2cccc(O)c2C3=O)C1 (stereo not given) | 26.4 | 20.1 | 18.5 | 16 | 9.57 | – | 11.1 | – | 22.4 | 24.2 | – | – | – | – | – | – | – | – | – | – |
| CCOC(=O)c1cn(CC)c2cc3c(cc2c1=O)SCS3 | > 100 | – | > 100 | > 100 | > 100 | – | > 100 | > 100 | > 100 | > 100 | – | – | – | – | – | – | – | – | – | – |
